Reference: ChEMBL document CHEMBL1157539, “Thousands of chemical starting points for antimalarial lead identification” (Nature, 2010)

Tested on: Plasmodium falciparum
Experiment: GSK_TCMDC: Inhibition of Plasmodium falciparum 3D7 in whole erythrocytes, using parasite LDH activity as an index of growth.
Assay type: functional, organism-based
Conditions: Plasmodium falciparum, 3D7

COc1ccc2c(N/N=C/c3ccccc3[N+](=O)[O-])ccnc2c1
XC50: 739 nM

CCN(CC)CCN(Cc1ccc(-c2ccc(C(F)(F)F)cc2)cc1)C(=O)Cn1c(/C=C/c2ccco2)nc(=O)c2ccccc21
XC50: 870 nM

CCN(CC)CCN(Cc1ccc(-c2ccc(C(F)(F)F)cc2)cc1)C(=O)Cn1c(CCc2cccc(F)c2F)nc(=O)c2cc(F)ccc21
XC50: 826 nM

C=CC[C@H](NC(=O)c1ccc(NS(=O)(=O)c2ccc3nc(N)[nH]c(=O)c3c2)cc1)C(=O)OCCCC
XC50: 154 nM

CCN1CCN(Cc2ccc(NC(=O)c3cc4ccc5cccnc5c4[nH]3)cc2)CC1
XC50: 848 nM

O=C(Nc1cc(Cl)cc(Cl)c1)c1cnn(-c2ccc(F)cc2)c1C1CCNCC1
XC50: 853 nM

Nc1ncc(-c2ccccc2)cc1-c1cccc2ncccc12
XC50: 272 nM

COc1cc(CN2CCC(CO)(Cc3cccc(C(F)(F)F)c3)CC2)c(Cl)cc1O
XC50: 896 nM

Nc1nc(-c2ccc3c(Nc4ccc(F)c(Cl)c4)ccnc3c2)cs1
XC50: 868 nM

COc1ccc(OCCCCON2C(=N)N=C(N)NC2(C)C)cc1
XC50: 3.2 nM

Fc1ccc(NC(S)=NN=Cc2ccccn2)cc1
XC50: 775 nM

CC(C)C[C@H](NC(=O)c1cc2ccccc2s1)C(=O)N[C@H]1CCN(Cc2ccc(OC[C@@H]3CCCN3C)c3ccccc23)C1
XC50: 1160 nM

Cc1cccc(C)c1CNc1ccnc2cc(C#N)ccc12
XC50: 684 nM

CC1CCCN(Cc2cc(Cl)cc(Cl)c2O)C1 (centres undefined)
XC50: 933 nM

COc1cccc(C(=O)Nc2ccc(Nc3nc(C)cc(N(C)C)n3)cc2)c1
XC50: 940 nM

COCCCNC(=N)c1ccc(NC(=O)c2ccc(C(=O)Nc3ccc(C(=N)NCCCOC)cc3)cc2)cc1
XC50: 45 nM

OCCN1CCN(C(=S)Nc2ccccc2)CC1
XC50: 936 nM

CCN(CC)C(=O)c1cnc(-c2ccccc2)nc1Oc1cccc(Cl)c1
XC50: 1160 nM

CC(C)OC(=O)c1ccc(NC(=O)N[C@@H](Cc2ccc(O)cc2)C(=O)NC2CCC(CCN3C4CCC3c3ccccc34)CC2)cc1 (some centres undefined)
XC50: 829 nM

COC(=O)c1ccc2c(-c3nc4ccc(OC)cc4[nH]3)c[nH]c2c1
XC50: 876 nM

Cc1cccc(-c2ccc(NC(=O)C3CCN(Cc4cccc(O)c4)CC3)cc2)c1
XC50: 975 nM

Cc1[nH]c2ccccc2c1C1=CCN(CCCCCC23CCCc4cccc(c42)NC3=O)CC1 (centres undefined)
XC50: 253 nM

COc1cc2ccccc2c(OC)c1CCNCCCCNCCc1c(OC)cc2ccccc2c1OC
XC50: 891 nM

CCCc1c(C(=O)NC2CCC(CN3CCC(c4c[nH]c5ccccc45)CC3)CC2)cnn1-c1ccc(Cl)cc1 (centres undefined)
XC50: 763 nM

O=C(Nc1cccc(CN2CCCN(Cc3cccc(Cl)c3)CC2)c1)c1ccc(-c2ccccc2)cc1
XC50: 1230 nM

O=c1nc(C=Cc2ccc(Br)cc2)oc2ccccc12
XC50: 1050 nM

COc1ccc2nccc([C@@H](O)CN3CCC(NCc4cc5sccc5nc4C(F)(F)F)CC3)c2c1
XC50: 913 nM

CCCCCc1cc(O)c2c3c(c(=O)oc2c1)CN(C)CC3
XC50: 121 nM

Cc1ccccc1C1CCN(C2CCC(NC(=O)/C=C/c3c[nH]c4ccccc34)CC2)CC1 (centres undefined)
XC50: 810 nM

CNc1ccc(CNCc2ccc(-c3ccc(-c4nc5cccc(C)c5[nH]4)s3)cc2)cc1
XC50: 661 nM

Cc1[nH]c2ccccc2c1C1CCN(CCCCNC(=O)c2ccc(-c3ccc(C#N)cc3)cc2)CC1
XC50: 704 nM

CN1CCN(c2ccc(Nc3ncc(C#N)c(Nc4ccccc4C(N)=O)n3)cc2)CC1
XC50: 39.4 nM

COc1ccccc1CCNc1nc(C)cc(N[C@@H](Cc2ccccc2)C(=O)NCc2cccc(F)c2)n1
XC50: 867 nM

CN1CCC(C(=O)N(Cc2ccc(-c3ccc(CNCCc4ccccc4)cn3)cc2)C2Cc3ccccc3C2)CC1
XC50: 1060 nM

CC(C)(C)CC(C)(C)c1ccc(O)c(CNC2CCCCC2)c1
XC50: 64.9 nM

CC1CCNc2ccc(Cc3cnc(N)nc3N)cc21 (centres undefined)
XC50: 1040 nM

N=c1sc2ccccc2n1CC(O)c1ccc(Cl)c(Cl)c1 (centres undefined)
XC50: 800 nM

Nc1c2c(nc3ccc(Oc4ccc(Cl)cc4)cc13)CCCC2
XC50: 972 nM

C=CCn1c(SCC(=O)Nc2cc(C)ccc2OC)nc2sc(C)cc2c1=O
XC50: 417 nM

COc1ccc2nccc([C@@H](O)CN3CCC(NCc4cc5ccccc5[nH]4)CC3)c2c1
XC50: 1100 nM

O=C(Nc1cc(C(F)(F)F)cc(C(F)(F)F)c1)c1cc(C(F)(F)F)cc(C(F)(F)F)c1
XC50: 872 nM

COc1ccc(F)cc1-c1ccc(C(=O)N2CCCN(c3ccc(C#N)cn3)CC2)cc1
XC50: 112 nM

COc1ccc2nccc([C@@H](O)CN3CCC(NCCOc4cccc(F)c4F)CC3)c2c1
XC50: 244 nM

COc1ccc(-c2ccc(NC(=O)c3cccc(C#N)c3)cc2)cc1CN1CCNCC1
XC50: 728 nM

COc1ccccc1CCNc1nc(C)cc(N[C@@H](Cc2ccccc2)C(=O)NCCc2ccccc2)n1
XC50: 1110 nM

CC(Cc1ccc(OCCCCOc2ccccc2)cc1)NCCCn1ccnc1 (centres undefined)
XC50: 167 nM

COc1cc(NCC(O)CNc2cc(Cl)nc3ccccc23)nc2ccccc12 (centres undefined)
XC50: 416 nM

O=C(COc1ccc(Cl)c(Cl)c1)NCCCCCN1CCCN(C(=O)Nc2cc(Cl)cc(Cl)c2)CC1
XC50: 1140 nM

CC(C)C[C@@H](NC(=O)NC1CCC(CCN2C3CCC2CC(OC(=O)C(CO)c2ccccc2)C3)CC1)C(O)(c1ccccc1)c1ccccc1 (some centres undefined)
XC50: 1070 nM

Cc1cc(=NN=Cc2ccccc2F)c2ccccc2[nH]1
XC50: 919 nM

C[C@@H](COc1ccc(-c2ccccc2)cc1)CON1C(N)=NC(N)=NC1(C)C
XC50: 3.2 nM

N=c1n(CCN2CCCCC2)c2ccccc2n1CC(O)c1ccc(Cl)c(Cl)c1 (centres undefined)
XC50: 320 nM

CCN(CC)c1cc(C)c2cc(NC(=O)c3cc(=O)c4ccccc4o3)ccc2n1
XC50: 224 nM

O=C(NCCCCN1CCC(c2ccc(-c3ccco3)cc2)CC1)c1ccc(NC(=O)c2ccc(Cl)cc2)cc1
XC50: 538 nM

OCCN1CCN(Cc2ccc(-c3ccc(-c4nc5cc(C(F)(F)F)ccc5[nH]4)s3)cc2)CC1
XC50: 379 nM

Cc1ccc(Nc2nc(C)cc(Nc3cccc(C#N)c3)n2)cc1
XC50: 978 nM

N#Cc1cccc(C(=O)Nc2cccc(-c3ccc(CN4CCC(O)CC4)cc3)c2)c1
XC50: 1300 nM

O=C(Nc1cccc(Cl)c1N1CCOCC1)C(Cl)(Cl)Cl
XC50: 983 nM

Cc1nc(C)c(-c2ccc(S(=O)(=O)c3ccc(Cl)cc3)cc2)c(O)c1Cl
XC50: 140 nM

Cc1cccc2nc(-c3cccc(-c4cccc(NC(=O)C(C)CN5CCN(C)CC5)c4)c3)[nH]c12 (centres undefined)
XC50: 537 nM

NC(=O)c1cnc2ccc(-c3cncs3)cc2c1Nc1ccc(F)c(Cl)c1
XC50: 182 nM

COc1ccc(CC2(c3ccc(F)cc3)N=C(N)N(CCCc3ccc4c(c3)OCO4)C2=O)cc1 (centres undefined)
XC50: 739 nM

NC1CCCN(Cc2cccc(-c3ccc(-c4nc5cc(C(F)(F)F)ccc5[nH]4)cc3)c2)C1 (centres undefined)
XC50: 518 nM

FC(F)(F)c1ccc2c(NCCc3ccccc3)ccnc2c1
XC50: 1270 nM

CN(C(=O)NCCc1ccccc1)C1CCN(CCCCCNC(=O)/C=C/c2ccc(Cl)c(Cl)c2)CC1
XC50: 678 nM

CCNC(=O)Nc1cccc(-c2ccc(-c3nc4cccc(C)c4[nH]3)s2)c1
XC50: 766 nM

CC(=O)Nc1cccc(CNc2cc(C)nc(Nc3ccc(C)cc3)n2)c1
XC50: 1140 nM

O=C(Nc1ccc(Cl)cc1)Nc1ccc2c(c1)N1CCN=C1S2
XC50: 592 nM

COc1ccc(NC(=O)NCC2CCCN(CCCCCNC(=O)/C=C/c3ccc(Cl)c(Cl)c3)C2)c(OC)c1 (centres undefined)
XC50: 859 nM

O=C(Nc1ccc(C(F)(F)F)cc1)c1cc(Br)cnc1NCCCn1ccnc1
XC50: 968 nM

S=C(NCCc1ccccc1)Nc1ccc2ncsc2c1
XC50: 1400 nM

COc1cc(Cc2cnc(N)nc2N)ccc1OCc1cccc(Oc2ccccc2)c1
XC50: 1330 nM

Cc1cccc2nc(-c3cccc(-c4cccc(C(=O)NCCN5CCCC5)c4)c3)[nH]c12
XC50: 833 nM

COc1nc2c(CCN3CC[C@H](NCc4cc(C#N)c5c(c4)OCCO5)[C@H](O)C3)ccnc2cc1F
XC50: 783 nM

COc1ccc2nccc([C@@H](O)CN3CCC(NC(=O)C(=O)c4c[nH]c5c(C)cccc45)CC3)c2c1
XC50: 307 nM

CN(C)C(=O)c1cc(CNCc2ccccc2)ccc1-c1cccc(CNCc2ccc(-c3ccccc3)cc2)c1
XC50: 1050 nM

CCN(CC)c1ccccc1CNC(=O)c1cc(Cl)c(N)cc1OC
XC50: 213 nM

N#Cc1ccc(CN2CCC(Oc3ccc(NC(=O)c4ccsc4)cc3Cl)C2)cc1 (centres undefined)
XC50: 674 nM

CCn1cnc2c(N3CCCS3(=O)=O)cc(C(=O)N[C@@H](Cc3ccccc3)[C@H](O)CNC(C)(C)c3cccc(C(F)(F)F)c3)cc21
XC50: 227 nM

CC(=O)Nc1ccc(C#Cc2ccc(-c3c(C)[nH]c(C)c(Cl)c3=O)cc2)cc1
XC50: 462 nM

CC(C)N1CCN(CCCCNc2c3ccccc3nc3ccccc23)CC1
XC50: 540 nM

O=C(CSc1nc(-c2ccccc2Cl)ns1)Nc1cccc(F)c1
XC50: 1110 nM

O=C1Nc2ccc3ncccc3c2/C1=C/Nc1ccc(N2CCN(CCO)CC2)cc1
XC50: 1270 nM

COc1ccc(-c2ccc(NC(=O)c3ccc(C#N)cc3)cc2)cc1CN1CCNCC1
XC50: 505 nM

COc1ccc(Nc2nc(NCc3cccc(NS(C)(=O)=O)c3)cc(-c3ccc(OC)cc3)n2)cc1
XC50: 1220 nM

NC(=O)c1ccsc1NC(=O)CNC(c1ccccc1)c1ccccc1
XC50: 938 nM

O=C(C1CCCCC1)N1CCOC(CCN2CCC(c3ccccc3)CC2)(c2ccc(Cl)c(Cl)c2)C1 (centres undefined)
XC50: 930 nM

O=C(Nc1ccc(SC(F)(F)F)cc1)Nc1ccc(Cl)c(Cl)c1
XC50: 909 nM

CC1(CCc2ccccc2)N=C(Nc2ccc(Cl)cc2)N=C(N)C1c1ccc(Cl)c(Cl)c1 (centres undefined)
XC50: 221 nM

COc1ccc(NC(=O)Nc2nc3ccccc3s2)cc1N1CCN(C)CC1
XC50: 703 nM

COc1cc(C(=O)Nc2ccc3nc(N4CCN(C)CC4)cc(C)c3c2)cc(OC)c1OC
XC50: 289 nM

CN1CCCC1CCNCc1cccc(-c2cnc(N3CCCC(C)(C)C3)nc2)c1 (centres undefined)
XC50: 927 nM

COc1cc2c(cc1N1CC(C)NC(C)C1)N(C(=O)c1ccc(-c3ccc(-c4ncc[nH]4)cc3C)cc1)CC2 (centres undefined)
XC50: 717 nM

O=C(C1CC1)N1c2ccccc2CCc2ccccc21
XC50: 833 nM

O=C1Nc2cccc3c2C1(CCCCCN1CCC(c2c[nH]c4ccncc24)CC1)CCC3 (centres undefined)
XC50: 990 nM

CCNc1cc(C(=O)N[C@@H](Cc2ccccc2)[C@H](O)CNC2CC3CCC2C3)cc(N2CCCCS2(=O)=O)c1 (some centres undefined)
XC50: 237 nM

CCC[C@@H]([C@@H](CC(C)C)C(=O)N[C@@H](CCCCNC(=O)c1cccc(OC)c1)C(=O)Nc1nccs1)N(O)C=O
XC50: 104 nM

Nc1n[nH]c(-c2ccccc2Nc2ccnc3cc(-c4nccs4)ccc23)n1
XC50: 1120 nM

COc1cc(SC)ccc1C(=O)N1CC(C)CC(C)C1 (centres undefined)
XC50: 354 nM
